For four compounds, melting point, inhibition and IC50 results are on record in patent US8748457B2, “2-amino-2- [8-(dimethyl carbamoyl)- 8-aza- bicyclo [3.2.1] oct-3-yl]-exo- ethanoyl derivatives as potent DPP-IV inhibitors” (Lupin Limited, priority 2009, dated 2014).

Series [1] addresses T1, human recombinant DPP-IV (Homo sapiens, UniProt P27487).
T1 construct: purchased R&D Systems, USA
Description: Inhibition of human recombinant DPP-IV (Gly-Pro-AMC fluorometric assay). Format: biochemical. The protocol:
Inhibition of Human Recombinant DPP-IV
The proteolytic activity of human recombinant DPP-IV was determined by following the hydrolysis of Gly-Pro-7-amino-4-methylcoumarin (Gly-Pro-AMC) and the fluorometric quantitation of the liberated AMC. Assays were routinely carried out in 96-well flat-bottom black microwell plates. The reaction mixture (100 μl) contained 10 ng of human recombinant DPP-IV enzyme (produced in-house or procured from R&D Systems, USA) in the assay buffer (25 mM Tris-HCl, pH 7.4, 140 mM NaCl, 10 mM KCl and 0.1 mg/ml BSA) and 50 μM Gly-Pro-AMC. After incubation of assay plates at 30° C. for 30 min, the hydrolysis of Gly-Pro-AMC was monitored in a fluorescence microplate reader (Molecular Devices SpectraMax M5), with excitation and emission wavelengths set at 360 nm and 460 nm, respectively.
The inhibition of DPP-IV activity by test compounds was routinely performed by preincubating the enzyme with test compound (10 and 100 nM for primary screening and 8 concentrations from 0.1 to 1000 nM for the dose-response study) or vehicle (0.01% DMSO) for 15 min at 30° C., in a total volume of 90 μl. Test compounds were dissolved in DMSO at a concentration of 10 mM and serially diluted further in assay buffer. The enzyme reaction was initiated by the addition of Gly-Pro-AMC, followed by incubation of assay plates for 30 min at 30° C. and the liberated AMC was measured as described above. A known inhibitor of DPP-IV (positive control) was always included in the assay. Test compounds at various concentrations were always evaluated in duplicate, along with substrate blanks, vehicle controls and positive controls.
The results are expressed as percent inhibition of the enzyme activity relative to vehicle controls. Dose-response studies were conducted for those compounds exerting ≧50% inhibition of activity at 10 nM in primary screening. IC50, defined as the inhibitor concentration which caused a 50% decrease of the activity under assay conditions, was computed using GraphPad Prism software, version 5.0. […]

The target in series [2] is T2, plasma DPP-IV (Canis lupus familiaris, UniProt A0A8I3Q2I8).
T2 construct: from tissue; host or cells: EDTA-plasma of male Beagle dogs after oral dosing (ex vivo)
Description: Measurement of plasma DPP-IV activity in Beagle dogs. In kind it is in vivo. The note with it: dog, male Beagle dogs, single oral dose 3 mg/kg p.o. The protocol: A. Measurement of Plasma DPP-IV Activity in Beagle Dogs
Overnight-fasted male animals were administered either vehicle or single oral dose of compound. Blood samples were collected prior to dosing and for 12 hours post dose into tubes containing EDTA. EDTA-plasma was separated and DPP-IV activity was measured using a fluorometric assay. Assays were carried out in 96-well flat-bottom black microwell plates. A typical reaction contained 25 μl plasma, 50 μl of 50 μM substrate (Gly-Pro-AMC) and 25 μl assay buffer (25 mM Tris-HCl, pH 7.4, 140 mM NaCl, 10 mM KCl and 1% BSA) in a total reaction volume of 100 μl. Plasma samples were incubated with the substrate for 30 min at 30° C., following which the fluorescence was measured in a microplate fluorescence reader (POLARstar Galaxy), with excitation and emission wavelengths set at 360 nm and 460 nm, respectively. Percent inhibition in plasma DPP-IV activity due to compounds was calculated by comparing with plasma from vehicle-treated animals.

Structures can show the parent of a compound that is named as a salt. Where two headings read alike, the source gives them in different places.

T2 sequence (A0A8I3Q2I8 1-765): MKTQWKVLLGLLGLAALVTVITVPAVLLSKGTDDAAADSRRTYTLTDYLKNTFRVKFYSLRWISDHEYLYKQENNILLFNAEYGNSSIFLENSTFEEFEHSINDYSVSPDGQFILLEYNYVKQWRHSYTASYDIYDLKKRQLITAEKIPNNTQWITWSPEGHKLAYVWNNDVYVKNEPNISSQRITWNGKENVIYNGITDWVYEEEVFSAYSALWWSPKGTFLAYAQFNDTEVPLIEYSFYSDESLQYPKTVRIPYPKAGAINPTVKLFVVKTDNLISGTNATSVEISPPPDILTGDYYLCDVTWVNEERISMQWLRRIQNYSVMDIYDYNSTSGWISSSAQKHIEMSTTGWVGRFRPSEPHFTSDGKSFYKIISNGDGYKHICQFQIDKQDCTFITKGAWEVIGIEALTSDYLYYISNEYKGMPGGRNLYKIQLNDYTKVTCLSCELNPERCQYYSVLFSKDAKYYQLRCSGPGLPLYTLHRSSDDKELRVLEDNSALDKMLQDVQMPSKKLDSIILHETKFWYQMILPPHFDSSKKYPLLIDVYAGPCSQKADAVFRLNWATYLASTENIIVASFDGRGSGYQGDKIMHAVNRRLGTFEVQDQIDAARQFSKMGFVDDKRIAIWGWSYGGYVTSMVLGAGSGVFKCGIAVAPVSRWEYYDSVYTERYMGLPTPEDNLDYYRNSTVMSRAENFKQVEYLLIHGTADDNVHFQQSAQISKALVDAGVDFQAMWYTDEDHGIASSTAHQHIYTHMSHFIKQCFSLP
T1 sequence (P27487 whole entry): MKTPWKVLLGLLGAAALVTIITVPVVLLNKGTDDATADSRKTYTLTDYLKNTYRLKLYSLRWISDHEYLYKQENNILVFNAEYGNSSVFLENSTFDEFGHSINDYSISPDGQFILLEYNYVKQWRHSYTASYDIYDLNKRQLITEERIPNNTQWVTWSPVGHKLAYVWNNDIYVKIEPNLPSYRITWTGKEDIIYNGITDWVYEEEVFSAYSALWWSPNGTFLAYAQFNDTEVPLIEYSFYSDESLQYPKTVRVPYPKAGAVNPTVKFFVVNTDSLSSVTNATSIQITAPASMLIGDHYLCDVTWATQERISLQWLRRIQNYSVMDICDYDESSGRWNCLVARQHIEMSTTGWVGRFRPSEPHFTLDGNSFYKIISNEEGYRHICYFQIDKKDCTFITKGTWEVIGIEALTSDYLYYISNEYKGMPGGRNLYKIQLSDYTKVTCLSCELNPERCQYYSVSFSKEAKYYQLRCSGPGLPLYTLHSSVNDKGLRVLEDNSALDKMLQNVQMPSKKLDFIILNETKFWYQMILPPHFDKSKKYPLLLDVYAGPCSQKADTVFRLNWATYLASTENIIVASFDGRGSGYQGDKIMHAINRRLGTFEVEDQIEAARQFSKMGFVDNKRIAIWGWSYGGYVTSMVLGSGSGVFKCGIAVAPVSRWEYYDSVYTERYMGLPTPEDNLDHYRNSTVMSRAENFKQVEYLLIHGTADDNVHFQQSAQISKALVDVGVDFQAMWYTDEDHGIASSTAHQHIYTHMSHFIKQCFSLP

Usually melting point stands for the temperature of the solid-liquid transition. In turn, `CN(C)C(=O)N1C2CCC1CC([C@H](N)C(=O)N1[C@H](C#N)C[C@@H]3C[C@@H]31)C2` (stereo partly drawn) (as salt: salt) [Compound 1, (1S,3S,5S)-2-{(2S)-2-Amino-2-[8-(dimethylcarbamoyl)-8-aza-bicyclo[3.2.1]-oct-3-yl]-exo-ethanoyl}-2-azabicyclo[3.1.0]-hexane-3-carbonitrile trifluoro acetic acid salt] showed a melting point of 178 to 180 °C.

Turning to `C#C[C@H]1CC[C@@H](C#N)N1C(=O)[C@@H](N)C1CC2CCC(C1)N2C(=O)N(C)C` (stereo partly drawn) (as salt: salt) [Compound 2, (2S,5R)-1-{(2S)-2-Amino-2-[8-(dimethylcarbamoyl)-8-aza-bicyclo[3.2.1]oct-3-yl]-exo-ethanoyl}-5-ethynyl-pyrrolidin-2-carbonitrile trifluoro acetic acid salt], the melting point was in the range of 165 to 167 °C.

What is called inhibition is how much of the control response was suppressed. Take `CN(C)C(=O)N1C2CCC1CC([C@H](N)C(=O)N1[C@H](C#N)C[C@@H]3C[C@@H]31)C2` (stereo partly drawn) [Compound 1, (1S,3S,5S)-2-{(2S)-2-Amino-2-[8-(dimethylcarbamoyl)-8-aza-bicyclo[3.2.1]-oct-3-yl]-exo-ethanoyl}-2-azabicyclo[3.1.0]-hexane-3-carbonitrile trifluoro acetic acid salt]: the inhibition at 0.01 µM in series [1] (compound at 10 nM (primary screening)) came to 69%. Besides, the inhibition at 0.1 µM in series [1] (compound at 100 nM (primary screening)) worked out at 94.8%.

In general, IC50 refers to the point on the concentration scale where inhibition reaches its midpoint. On to `C#C[C@H]1CC[C@@H](C#N)N1C(=O)[C@@H](N)C1CC2CCC(C1)N2C(=O)N(C)C` (stereo partly drawn) [Compound 2, (2S,5R)-1-{(2S)-2-Amino-2-[8-(dimethylcarbamoyl)-8-aza-bicyclo[3.2.1]oct-3-yl]-exo-ethanoyl}-5-ethynyl-pyrrolidin-2-carbonitrile trifluoro acetic acid salt], for which the inhibition at 3 mg/kg in series [2] (0.5 h post dose, read-out: Plasma DPP-IV Inhibition (%) 0.5 h) was found to be 91%; in series [2] (1 h post dose, read-out: Plasma DPP-IV Inhibition (%) 1 h), 85%; in series [2] (2 h post dose, read-out: Plasma DPP-IV Inhibition (%) 2 h), 92%; in series [2] (3 h post dose, read-out: Plasma DPP-IV Inhibition (%) 3 h), 90%; in series [2] (4 h post dose, read-out: Plasma DPP-IV Inhibition (%) 4 h), 85%; in series [2] (6 h post dose, read-out: Plasma DPP-IV Inhibition (%) 6 h) it was 72%. In addition, the inhibition at 3 mg/kg in series [2] (8 h post dose, read-out: Plasma DPP-IV Inhibition (%) 8 h) came out at 68%; in series [2] (10 h post dose, read-out: Plasma DPP-IV Inhibition (%) 10 h), 67%; in series [2] (12 h post dose, read-out: Plasma DPP-IV Inhibition (%) 12 h), 62%. Further, in series [1] (50 μM Gly-Pro-AMC, 15 min preincubation, 30 min at 30° C.), the half-inhibitory concentration (IC50) was determined as 3.3 nM.
